Measured values taken from patent US20250353864A1, “INDAZOLE CONTAINING MACROCYCLES AND THEIR USE” (BLOSSOMHILL THERAPEUTICS, INC., priority 2022, published 2025).

What was measured:
Format in all cases: biochemical
[1] = molecular target: EGFR L858R/T790M mutant (Homo sapiens (Human), UniProt P00533, L858R/T790M); assay: HotSpot radiometric kinase assay, EGFR L858R/T790M mutant; conditions: 10 μM ATP
Method in brief: (§1)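 IC50 values come from curve fits of ^33P incorporation captured on P81 filters after acid washing. Kinase reactions ran 120 min at room temperature with 10 μM ATP, added about 20 min after compound. Buffer was Hepes pH 7.5 containing Mg, DTT and 1% DMSO.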

[2] = molecular target: EGFR Δ746-750 mutant (Homo sapiens (Human), UniProt P00533, DEL746-750); assay: HotSpot radiometric kinase assay, EGFR Δ746-750 mutant; conditions: 10 μM ATP
EGFR Δ746-750 mutant, sequence (P00533 other isoform, or with tags, fused parts or gaps del 1-668/del 746-750 limits assumed): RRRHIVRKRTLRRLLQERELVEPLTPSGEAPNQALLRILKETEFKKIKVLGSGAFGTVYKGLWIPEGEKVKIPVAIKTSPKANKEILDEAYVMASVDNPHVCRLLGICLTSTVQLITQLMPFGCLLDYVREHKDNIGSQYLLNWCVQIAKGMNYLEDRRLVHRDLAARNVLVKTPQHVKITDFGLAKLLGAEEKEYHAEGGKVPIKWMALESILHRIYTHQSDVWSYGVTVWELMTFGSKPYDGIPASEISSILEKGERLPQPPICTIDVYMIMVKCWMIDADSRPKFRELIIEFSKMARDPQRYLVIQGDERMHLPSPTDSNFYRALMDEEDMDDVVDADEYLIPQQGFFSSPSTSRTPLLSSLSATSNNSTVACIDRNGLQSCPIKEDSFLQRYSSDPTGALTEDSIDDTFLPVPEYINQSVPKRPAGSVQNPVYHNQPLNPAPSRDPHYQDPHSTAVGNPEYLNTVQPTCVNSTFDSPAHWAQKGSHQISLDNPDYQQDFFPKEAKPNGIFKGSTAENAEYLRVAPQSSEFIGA
Method in brief: as §1

[3] = molecular target: EGFR L858R/T790M/C797S mutant (Homo sapiens (Human), UniProt P00533, C797S/L858R/T790M); assay: HotSpot radiometric kinase assay, EGFR L858R/T790M/C797S mutant; conditions: 10 μM ATP
EGFR L858R/T790M/C797S mutant, sequence (P00533 25-1210 T790M/C797S/L858R): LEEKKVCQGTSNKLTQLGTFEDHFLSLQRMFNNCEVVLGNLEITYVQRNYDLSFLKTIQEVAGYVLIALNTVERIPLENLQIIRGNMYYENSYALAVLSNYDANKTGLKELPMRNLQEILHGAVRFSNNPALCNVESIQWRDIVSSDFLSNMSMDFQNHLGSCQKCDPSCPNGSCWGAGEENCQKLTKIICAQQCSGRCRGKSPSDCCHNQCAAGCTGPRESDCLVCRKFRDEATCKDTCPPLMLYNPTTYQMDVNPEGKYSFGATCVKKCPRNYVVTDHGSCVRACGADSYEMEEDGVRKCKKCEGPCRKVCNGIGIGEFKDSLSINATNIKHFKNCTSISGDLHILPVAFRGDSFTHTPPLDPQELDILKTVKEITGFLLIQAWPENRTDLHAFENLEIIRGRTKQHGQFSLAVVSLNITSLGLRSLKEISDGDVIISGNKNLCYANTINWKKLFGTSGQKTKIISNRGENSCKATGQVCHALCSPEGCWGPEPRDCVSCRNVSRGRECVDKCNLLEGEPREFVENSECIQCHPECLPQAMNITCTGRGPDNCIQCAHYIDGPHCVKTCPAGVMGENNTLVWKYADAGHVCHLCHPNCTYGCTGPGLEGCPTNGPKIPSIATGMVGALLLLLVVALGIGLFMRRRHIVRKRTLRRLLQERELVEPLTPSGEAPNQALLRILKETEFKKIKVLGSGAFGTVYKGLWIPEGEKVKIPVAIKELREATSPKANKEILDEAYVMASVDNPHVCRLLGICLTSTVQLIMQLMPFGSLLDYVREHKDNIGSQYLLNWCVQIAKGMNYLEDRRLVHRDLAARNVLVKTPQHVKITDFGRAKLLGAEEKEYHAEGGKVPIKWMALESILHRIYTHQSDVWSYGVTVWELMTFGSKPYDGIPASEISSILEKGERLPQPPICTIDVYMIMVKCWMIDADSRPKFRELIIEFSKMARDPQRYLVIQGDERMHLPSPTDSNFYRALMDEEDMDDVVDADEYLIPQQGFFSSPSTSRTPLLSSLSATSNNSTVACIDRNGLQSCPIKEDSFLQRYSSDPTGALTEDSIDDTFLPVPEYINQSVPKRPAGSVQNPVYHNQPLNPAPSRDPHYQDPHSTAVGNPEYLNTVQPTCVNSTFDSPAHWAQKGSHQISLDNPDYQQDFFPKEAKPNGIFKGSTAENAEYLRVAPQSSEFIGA
Method in brief: as §1

[4] = molecular target: EGFR Δ746-750/C797S mutant (Homo sapiens (Human), UniProt P00533, C797S/DEL746-750); assay: HotSpot radiometric kinase assay, EGFR Δ746-750/C797S mutant; conditions: 10 μM ATP
EGFR Δ746-750/C797S mutant, sequence (P00533 other isoform, or with tags, fused parts or gaps C797S/del 1-668/del 746-750 limits assumed): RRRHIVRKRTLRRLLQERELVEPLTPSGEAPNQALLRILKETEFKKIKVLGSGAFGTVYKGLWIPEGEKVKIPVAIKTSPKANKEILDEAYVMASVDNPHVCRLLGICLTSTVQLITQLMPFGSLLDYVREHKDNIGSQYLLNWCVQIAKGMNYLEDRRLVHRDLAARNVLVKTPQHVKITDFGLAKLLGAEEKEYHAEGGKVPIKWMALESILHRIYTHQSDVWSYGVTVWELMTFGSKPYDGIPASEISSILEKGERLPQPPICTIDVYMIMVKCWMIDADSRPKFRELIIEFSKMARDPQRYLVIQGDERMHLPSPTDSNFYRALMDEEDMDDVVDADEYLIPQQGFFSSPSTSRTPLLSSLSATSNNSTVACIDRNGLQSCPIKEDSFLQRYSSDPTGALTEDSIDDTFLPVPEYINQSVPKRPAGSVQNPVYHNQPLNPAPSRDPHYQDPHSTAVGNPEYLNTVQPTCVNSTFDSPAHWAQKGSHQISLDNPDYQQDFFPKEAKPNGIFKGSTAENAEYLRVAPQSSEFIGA
Method in brief: as §1

[5] = molecular target: EGFR L858R mutant (Homo sapiens (Human), UniProt P00533, L858R); assay: HotSpot radiometric kinase assay, EGFR L858R mutant; conditions: 10 μM ATP
Method in brief: as §1

[6] = molecular target: CLK1 (Homo sapiens (Human), UniProt P49759); assay: Inhibition of CLK1 kinase activity evaluated at Nanosyn (ADP-Glo); conditions: ADP-Glo luminescence
Method in brief: (§2)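 Enzyme + substrate in HEPES pH 7.5/MgCl2/DTT buffer; compound dispensed acoustically, 1% DMSO. ATP start, assay-specific incubation time. ADP-Glo reagent 40 min, detection reagent 10 min, luminescence. %inh vs DMSO (0%) and no-enzyme (100%) controls.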

[7] = molecular target: CLK4 (Homo sapiens (Human), UniProt Q9HAZ1); assay: Inhibition of CLK4 kinase activity evaluated at Nanosyn (ADP-Glo); conditions: ADP-Glo luminescence
Method in brief: as §2

[8] = molecular target: CLK3 (Homo sapiens (Human), UniProt P49761); assay: Inhibition of CLK3 kinase activity evaluated at Nanosyn (ADP-Glo); conditions: ADP-Glo luminescence
CLK3, sequence (P49761 whole entry): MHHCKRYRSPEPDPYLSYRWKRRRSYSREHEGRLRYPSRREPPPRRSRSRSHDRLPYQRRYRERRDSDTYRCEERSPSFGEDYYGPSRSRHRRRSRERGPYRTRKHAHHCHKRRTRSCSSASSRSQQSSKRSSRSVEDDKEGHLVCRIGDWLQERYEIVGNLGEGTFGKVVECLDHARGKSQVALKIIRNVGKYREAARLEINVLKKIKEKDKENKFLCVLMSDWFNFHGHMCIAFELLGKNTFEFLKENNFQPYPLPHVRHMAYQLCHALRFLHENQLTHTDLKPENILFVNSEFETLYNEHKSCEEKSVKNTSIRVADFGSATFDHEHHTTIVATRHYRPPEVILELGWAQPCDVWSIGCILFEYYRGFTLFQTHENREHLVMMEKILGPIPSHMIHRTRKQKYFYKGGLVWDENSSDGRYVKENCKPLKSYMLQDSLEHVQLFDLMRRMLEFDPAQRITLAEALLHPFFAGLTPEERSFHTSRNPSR
Method in brief: as §2

[9] = molecular target: CLK2 (Homo sapiens (Human), UniProt P49760); assay: Inhibition of CLK2 kinase activity evaluated at Nanosyn (ADP-Glo); conditions: ADP-Glo luminescence
CLK2, sequence (P49760 whole entry): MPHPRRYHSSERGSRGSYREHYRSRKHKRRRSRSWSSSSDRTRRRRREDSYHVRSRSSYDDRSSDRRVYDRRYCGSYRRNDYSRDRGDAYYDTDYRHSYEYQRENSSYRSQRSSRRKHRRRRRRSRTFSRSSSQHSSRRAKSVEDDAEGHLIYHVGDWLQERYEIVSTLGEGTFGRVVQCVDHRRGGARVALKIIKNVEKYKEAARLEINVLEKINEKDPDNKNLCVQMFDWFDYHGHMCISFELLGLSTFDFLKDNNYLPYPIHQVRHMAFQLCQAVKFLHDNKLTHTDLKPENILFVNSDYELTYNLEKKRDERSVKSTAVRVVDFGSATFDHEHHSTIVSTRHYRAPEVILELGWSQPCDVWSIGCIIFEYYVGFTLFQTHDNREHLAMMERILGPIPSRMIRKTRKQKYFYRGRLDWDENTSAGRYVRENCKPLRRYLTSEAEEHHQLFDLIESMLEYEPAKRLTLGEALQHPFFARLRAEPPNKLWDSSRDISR
Method in brief: as §2

[10] = molecular target: EGFR (D770_N771insNPG) (Homo sapiens (Human), UniProt P00533, INS770NPG); assay: HotSpot radiometric kinase assay, EGFR (D770_N771insNPG); conditions: 10 μM ATP, read-out: EGFR (Δ770_N771insNPG) IC50
EGFR (D770_N771insNPG), sequence (P00533 other isoform, or with tags, fused parts or gaps del 1-668/ins NPG behind 770 limits assumed): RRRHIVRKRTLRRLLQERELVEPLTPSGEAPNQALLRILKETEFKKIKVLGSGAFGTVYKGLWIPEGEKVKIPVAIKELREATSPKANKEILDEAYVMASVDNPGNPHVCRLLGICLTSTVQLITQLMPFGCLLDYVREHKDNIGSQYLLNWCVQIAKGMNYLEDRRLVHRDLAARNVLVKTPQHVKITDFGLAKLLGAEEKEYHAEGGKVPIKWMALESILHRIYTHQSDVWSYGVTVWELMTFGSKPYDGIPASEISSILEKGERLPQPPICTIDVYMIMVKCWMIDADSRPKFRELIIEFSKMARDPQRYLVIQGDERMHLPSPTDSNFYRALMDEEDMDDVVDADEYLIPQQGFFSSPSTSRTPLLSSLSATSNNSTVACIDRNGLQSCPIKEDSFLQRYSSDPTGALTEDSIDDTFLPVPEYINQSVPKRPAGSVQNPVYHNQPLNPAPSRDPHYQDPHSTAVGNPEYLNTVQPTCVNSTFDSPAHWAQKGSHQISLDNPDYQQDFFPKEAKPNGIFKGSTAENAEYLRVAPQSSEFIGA
Method in brief: as §1

[11] = molecular target: EGFR WT (Homo sapiens (Human), UniProt P00533); assay: HotSpot radiometric kinase assay (Reaction Biology), EGFR WT; conditions: 10 μM ATP
EGFR WT, sequence (P00533 25-1210): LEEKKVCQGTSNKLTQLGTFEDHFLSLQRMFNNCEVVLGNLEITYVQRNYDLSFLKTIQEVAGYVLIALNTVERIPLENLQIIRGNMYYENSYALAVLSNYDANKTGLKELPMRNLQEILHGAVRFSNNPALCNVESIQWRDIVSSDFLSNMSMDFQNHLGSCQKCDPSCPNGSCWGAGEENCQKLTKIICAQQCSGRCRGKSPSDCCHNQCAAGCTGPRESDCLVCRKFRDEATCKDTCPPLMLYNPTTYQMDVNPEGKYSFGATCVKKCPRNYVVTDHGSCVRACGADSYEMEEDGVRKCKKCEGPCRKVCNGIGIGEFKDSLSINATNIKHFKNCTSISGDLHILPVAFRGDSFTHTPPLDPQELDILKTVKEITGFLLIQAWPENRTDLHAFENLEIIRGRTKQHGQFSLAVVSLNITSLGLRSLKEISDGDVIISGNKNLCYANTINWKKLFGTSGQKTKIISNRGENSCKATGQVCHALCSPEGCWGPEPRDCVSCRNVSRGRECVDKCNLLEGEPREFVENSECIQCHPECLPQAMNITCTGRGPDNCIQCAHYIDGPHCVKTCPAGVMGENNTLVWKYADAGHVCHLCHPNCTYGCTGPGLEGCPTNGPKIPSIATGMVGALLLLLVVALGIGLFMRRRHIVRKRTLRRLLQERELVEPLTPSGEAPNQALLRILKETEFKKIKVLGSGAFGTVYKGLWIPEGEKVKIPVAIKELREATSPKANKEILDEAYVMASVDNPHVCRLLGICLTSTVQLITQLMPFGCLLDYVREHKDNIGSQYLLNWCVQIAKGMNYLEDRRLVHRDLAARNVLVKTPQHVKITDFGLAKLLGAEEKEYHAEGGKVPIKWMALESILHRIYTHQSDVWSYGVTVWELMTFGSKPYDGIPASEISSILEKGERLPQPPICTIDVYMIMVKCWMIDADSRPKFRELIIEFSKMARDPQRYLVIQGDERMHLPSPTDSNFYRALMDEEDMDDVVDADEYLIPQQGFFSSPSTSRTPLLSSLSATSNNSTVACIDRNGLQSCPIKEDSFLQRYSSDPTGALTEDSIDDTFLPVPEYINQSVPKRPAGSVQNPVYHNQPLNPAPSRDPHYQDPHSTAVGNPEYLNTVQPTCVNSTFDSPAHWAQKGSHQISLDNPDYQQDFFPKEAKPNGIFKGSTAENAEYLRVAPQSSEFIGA
Method in brief: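 Radiometric filter-binding read-out: incorporated 33P was retained on P81 ion-exchange paper after washing away unbound phosphate. Reactions ran 120 min at room temperature with 10 μM final ATP, following ~20 min compound preincubation in Hepes pH 7.5 buffer containing 1% DMSO. IC50 from fitted curves.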

| IC50 [1] | IC50 [2] | IC50 [3] | IC50 [4] | IC50 [5] | IC50 [6] | IC50 [7] | IC50 [8] | IC50 [9] | IC50 [10] | IC50 [11] | SMILES |
| --- | --- | --- | --- | --- | --- | --- | --- | --- | --- | --- | --- |
| > 1000 nM | > 1000 nM | > 1000 nM | 2870 nM | 400 nM | 270 nM | 397 nM | 1 nM | 114 nM | > 1000 nM | > 1000 nM | C[C@H]1CN(C)Cc2c(c(OCC(F)(F)F)nn2CCO)/C=C/c2n[nH]c3cc(F)c(cc23)-c2cnn(C)c2O1 [Example 211, 2-[(10S,17E)-19-fluoro-8,10,12-trimethyl-16-(2,2,2-trifluoroethoxy)-2,8,10,11,12,13-hexahydro-14H-3,5-ethenotripyrazolo[3,4-f:3′,4′-j:4″,3″- n][1,4]oxazacyclopentadecin-14-yl]ethan-1-ol] |
| 2.42 nM | 10.2 nM | 1.05 nM | 5.92 nM | 36.6 nM | 31.8 nM | 21 nM | 1000 nM | 45.4 nM | 77.3 nM | 90.1 nM | CC(C)Oc1nn(CCO)c2c1/C=C/c1n[nH]c3ccc(cc13)-c1cnn(C)c1O[C@H](C)CN(C(C)C)C2 [Example 193, 2-{(10R,17E)-8,10-dimethyl-12-(propan-2-yl)-16-[(propan-2-yl)oxy]-2,8,10,11,12,13-hexahydro-14H-3,5-ethenotripyrazolo[3,4-f:3′,4′-j:4″,3″-n][1,4]oxazacyclopentadecin-14-yl}ethan-1-ol] |
| 0.89 nM | 5.84 nM | 0.26 nM | 1.96 nM | 13.1 nM | 0.76 nM | 1.63 nM | 1000 nM | 1.61 nM | 47 nM | 36.8 nM | CCOc1nn(CCO)c2c1/C=C/c1n[nH]c3ccc(cc13)-c1cnn(C)c1OC[C@H](C)N(C1CC1)C2 [Example 198, 2-[(11S,17E)-12-cyclopropyl-16-ethoxy-8,11-dimethyl-2,8,10,11,12,13-hexahydro-14H-3,5-ethenotripyrazolo[3,4-f:3′,4′-j:4″,3″- n][1,4]oxazacyclopentadecin-14-yl]ethan-1-ol] |
| 0.57 nM | 16.9 nM | 0.42 nM | 3.87 nM | 52.3 nM | 5.27 nM | 5.31 nM | 237 nM | 7.14 nM | 139 nM | 154 nM | CC(C)Oc1nn(CCO)c2c1/C=C/c1n[nH]c3ccc(cc13)-c1cnn(C)c1O[C@H](C)CN(C1CC1)C2 [Example 212, 2-{(10R,17E)-12-cyclopropyl-8,10-dimethyl-16-[(propan-2-yl)oxy]-2,8,10,11,12,13-hexahydro-14H-3,5-ethenotripyrazolo[3,4-f:3′,4′-j:4″,3″- n][1,4]oxazacyclopentadecin-14-yl}ethan-1-ol] |
| 0.42 nM | 21.1 nM | 0.2 nM | 5.07 nM | 82.6 nM | 5.75 nM | 5.07 nM | 1 nM | 6.11 nM | 431 nM | 296 nM | CC(C)Oc1nn(CCO)c2c1/C=C/c1n[nH]c3ccc(cc13)-c1cnn(C)c1OC[C@H](C)N(C1CC1)C2 [Example 213, 2-{(11S,17E)-12-cyclopropyl-8,11-dimethyl-16-[(propan-2-yl)oxy]-2,8,10,11,12,13-hexahydro-14H-3,5-ethenotripyrazolo[3,4-f:3′,4′-j:4″,3″- n][1,4]oxazacyclopentadecin-14-yl}ethan-1-ol] |
| 0.17 nM | 0.11 nM | 0.78 nM | 0.23 nM | 0.12 nM | 0.72 nM | 1.59 nM | 151 nM | 0.14 nM | 0.65 nM | 0.23 nM | C[C@H]1CN(C)Cc2c(c(OCC#N)nn2CCO)/C=C/c2n[nH]c3ccc(cc23)-c2cnn(C)c2O1 [Example 203, {[(10S,17E)-14-(2-hydroxyethyl)-8,10,12-trimethyl-2,10,11,12,13,14-hexahydro-8H-3,5-ethenotripyrazolo[3,4-f:3′,4′-j:4″,3″- n][1,4]oxazacyclopentadecin-16-yl]oxy}acetonitrile] |
| 1.91 nM | 1.31 nM | 5.35 nM | 2.29 nM | 2.38 nM | 0.83 nM | 1.59 nM | 168 nM | 0.42 nM | 15.7 nM | 4.74 nM | CC(C)Oc1nn(CCO)c2c1/C=C/c1n[nH]c3ccc(cc13)-c1cnn(C)c1O[C@@H](C)[C@H]1CCCN1C2 [Example 252, 2-[(8aR,9S,19E)-9,11-dimethyl-1-[(propan-2-yl)oxy]-7,8,8a,9,11,17-hexahydro-6H-14,16-ethenotripyrazolo[3,4-f:3′,4′-j:4″,3″-n]pyrrolo[2,1-c][1,4]oxazacyclopentadecin-3(4H)-yl]ethan-1-ol] |
| 6.18 nM | 18.6 nM | 3.67 nM | 8.68 nM | 39.9 nM | 36.6 nM | 22.3 nM | 435 nM | 53.5 nM | 156 nM | 99.7 nM | CC(C)Oc1nn(CCO)c2c1/C=C/c1n[nH]c3cc(F)c(cc13)-c1cnn(C)c1O[C@H](C)CN(C(C)C)C2 [Example 195, 2-{(10R,17E)-19-fluoro-8,10-dimethyl-12-(propan-2-yl)-16-[(propan-2-yl)oxy]-2,8,10,11,12,13-hexahydro-14H-3,5-ethenotripyrazolo[3,4-f:3′,4′-j:4″,3″- n][1,4]oxazacyclopentadecin-14-yl}ethan-1-ol] |
| 0.45 nM | 0.62 nM | 0.62 nM | 0.86 nM | 0.34 nM | 0.43 nM | 0.81 nM | 87.4 nM | 0.14 nM | 6.36 nM | 1.74 nM | CCOc1nn([C@@H](C)CO)c2c1/C=C/c1n[nH]c3ccc(cc13)-c1cnn(C)c1O[C@@H](C)CN(C)C2 [Example 155] |
| 4.07 nM | 1.94 nM | 1.24 nM | 4.05 nM | 7.1 nM | 131 nM | 68.5 nM | 1000 nM | 59.6 nM | 38.6 nM | 24.8 nM | CCOc1nn([C@@H](C)CO)c2c1/C=C/c1n[nH]c3cc(F)c(cc13)-c1cnn(C)c1O[C@H](C)CN(C(C)C)C2 [Example 229, (2S)-2-[(10R,17E)-16-ethoxy-19-fluoro-8,10-dimethyl-12-(propan-2-yl)-2,8,10,11,12,13-hexahydro-14H-3,5-ethenotripyrazolo[3,4-f:3′,4′-j:4″,3″- n][1,4]oxazacyclopentadecin-14-yl]propan-1-ol] |
| 1.29 nM | 1.11 nM | 1.83 nM | 1.32 nM | 0.9 nM | 11.9 nM | 5.91 nM | 1000 nM | 13.9 nM | 16.7 nM | 2.14 nM | CCOc1nn(CCO)c2c1/C=C/c1n[nH]c3ccc(cc13)-c1c(C)nn(C)c1O[C@@H](C)CN(C(C)C)C2 [Example 142, 2-[(10S,17E)-16-ethoxy-6,8,10-trimethyl-12-(propan-2-yl)-2,8,10,11,12,13-hexahydro-14H-3,5-ethenotripyrazolo[3,4-f:3′,4′-j:4″,3″- n][1,4]oxazacyclopentadecin-14-yl]ethan-1-ol] |
| 3.32 nM | 18.3 nM | 2.32 nM | 13.9 nM | 18.3 nM | 0.15 nM | 0.37 nM | 186 nM | 0.29 nM | 140 nM | 168 nM | Cc1c2c(nn1C[C@H](C)O)CN(C)C[C@H](C)Oc1c(cnn1C)-c1ccc3[nH]nc(c3c1)/C=C/2 [Example 124, (2S)-1-[(10S,17E)-8,10,12,16-tetramethyl-2,8,10,11,12,13-hexahydro-15H-3,5-ethenotripyrazolo[3,4-f:3′,4′-j:4″,3″-n][1,4]oxazacyclopentadecin-15-yl]propan-2-ol] |
